Test results from paper PMC4488747, “Inhibition of P-glycoprotein Gene Expression and Function Enhances Triptolide-induced Hepatotoxicity in Mice” (Scientific Reports, 2015).
Read-outs that look alike come from different tables or passages of the source.

What was measured:
Type in all cases: in vivo
[1] = system: BALB/C mice; test: Serum ALT and AST (TP-induced hepatotoxicity) in mice; settings: TP 1 mg/kg iv + NC-siRNA, 24 h after TP
Procedure: (§1) For TP plasma kinetic study and toxicological evaluation, mice were divided into four groups (n = 5 each) to collect blood and tissue samples: (1) normal + saline group; (2) 1.0 mg/kg TP + 15 nmol NC-siRNA group; (3) 1.0 mg/kg TP + 15 nmol mdr1a-siRNA group; (4) 1.0 mg/kg TP + 10 mg/kg tariquidar group. In order to avoid the complication caused by drug absorption or possible intestinal first-pass effect, TP and the inhibitor were intravenously administrated to mice. The siRNA group was intravenously injected with NC-siRNA or mdr1a-siRNA 2 days before TP dose. For TP + tariquidar group, the mice were received an intravenous tariquidar dose 20 min prior to the TP injection. Blood samples were collected at 2, 5, 10, 15, 30, 60 and 120 min after TP dosing. To assess the liver exposure of TP, liver tissue samples were collected from another set of mice at 5, 30, 60 and 120 min after dosing. Three TP groups were design for this experiment, including TP + NC-siRNA group, TP + mdr1a-siRNA group and TP + tariquidar group. The liver tissue samples were weighed and then homogenized in 10 volume (w:v) of ice-cold saline. The concentrations of TP in plasma and liver tissue were measured by a validated LC-MS/MS method. Prior to the above animal study, a preliminary experiment was performed to assess the possible differences in liver P-gp protein expression (Figure S1) and TP plasma kinetics between NC-siRNA treated mice and normal mice (with saline) (Figure S2 and supplemental Table 1). […] Therefore, NC-siRNA group was used as the control in the following animal study.
(§2) At 24 h of TP treatment, blood and liver tissue samples were collected from the mice in plasma kinetic study. Serum ALT and AST levels were determined with a CL8000 automated biochemical analyzer (Shimadzu, Japan) after serum was separated by centrifugation at 900 g for 10 min. Liver tissue samples were divided into two parts, the first half was kept at −80 °C until MDA and SOD measurements using MDA and SOD assay kits (Nanjing Jiancheng Bioengineering Institute, Nanjing, China) according to the manufacturer’s instructions. The other half was fixed with 4% paraformaldehyde solution and then dehydrated, embedded in paraffin and sectioned at a thickness of 5 μm. Four paraffin sections from each mouse were dewaxed, rehydrated and stained with hematoxylin-eosin (HE) for overall morphological evaluation. The total protein concentration was quantified by the BCA assay. Bcl-2 and Bax proteins were measured by western blot.

[2] = system: Bcl-2/Bax; test: Bcl-2 and Bax expression in mouse liver (western blot); settings: mice, TP 1 mg/kg iv, 24 h; tariquidar and mdr1a-siRNA = given before TP
Procedure: For protein extraction, the cells or mice liver tissues were homogenized in RIPA buffer and then centrifuged at 14,000 g at 4 °C for 30 min. The supernatant was collected and the protein concentration was measured using BCA assay. The sample (50 μg protein/sample) was then loaded on 12% polyacrylamide gels and transferred to polyvinylidene difluoride membranes (Millipore, USA). After blocked by 3% bovine serum albumin, the membranes were incubated with primary antibodies and HRP-conjugated secondary antibody, and then detected using the enhanced chemiluminescence plus detection system (Molecular Device, Lmax, USA). The density of each band was quantified by using image analysis software (Science Lab 2005 Image Guage; Tokyo, Japan).
as §2, with “The other half was fixed with 4% paraformaldehyde solution and then dehydrated, embedded in paraffin and sectioned at a thickness of 5 μm. Four paraffin sections from each mouse were dewaxed, rehydrated and stained with hematoxylin-eosin (HE) for overall morphological evaluation.” left out

[3] = Triptolide plasma toxicokinetics in mice; settings: TP 1.0 mg/kg iv
Procedure: as §1
The TP in plasma and tissue samples was quantitatively analyzed by a published LC-MS/MS method. The method was slightly modified and validated for analysis of plasma and liver tissue samples. Plasma and tissue homogenate were pretreated with 3-fold volume of methanol-acetonitrile (1:1, v/v) containing 20 ng/ml propranolol to precipitate proteins, and then centrifuged at 4°C, 14,000 g for 10 min. The supernatant (10 μl) was injected into LC-MS/MS for analysis. An Aglient 6410B triple quadrupole mass spectrometer equipped with Agilent1290 Infinity UHPLC system (Agilent Technologies, Santa Clara, CA) was used. TP and propranolol (internal standard, IS) were eluted from an Agilent C18 column (dp = 3.5 μm, 2.1 × 50 mm, Agilent, MA) using a mobile phase gradient (A: water with 0.1% formic acid and 2.5 mM ammonium formate, B: acetonitrile with 0.1% formic acid). The gradient was run as: 0–2.5 min hold at 95% B; 2.5–3 min, a linear gradient to 10% B; 3–4 min hold at 10% B. Flow rate was 0.2 ml/min. TP and propranolol were detected in positive ion mode using single reaction monitoring: TP, m/z 378.1/360.1, IS, m/z 260.0/116.0. Under the above optimized condition, no significant endogenous interferences were detected at the peak regions for TP and IS in all the biological specimens. The calibration curves of TP were linear (r^2 > 0.99) over the concentration range of 1–1000 ng/ml. The lower limit of quantification was at 1 ng/ml. The intra and inter-day precisions (RSD) were all below 11% and the assay accuracies (RE) were in the range from 87% to 113%. The recovery was above 80% for both plasma and tissue samples.
Toxicokinetic parameters, including area under the plasma concentration-time curve (AUC), volume of distribution (Vd), clearance (CL), mean residence time (MRT) and terminal elimination half-life (t1/2), were calculated by non-compartmental analysis using WinNonlin 5.2 software (Pharsight Corporation, CA, USA). All the data were expressed as mean ± SD. Differences between groups were compared by Student’s t-test for analysis of unpaired data or one-way ANOVA. Statistical significance was accepted at P < 0.05.

[4] = system: BALB/C mice; test: Hepatic MDA content and SOD activity in mice; settings: 24 h; for Hepatic MDA level, fold increase: significance vs normal group
Procedure: as §1
At 24 h of TP treatment, blood and liver tissue samples were collected from the mice in plasma kinetic study. Serum ALT and AST levels were determined with a CL8000 automated biochemical analyzer (Shimadzu, Japan) after serum was separated by centrifugation at 900 g for 10 min. […] The total protein concentration was quantified by the BCA assay. Bcl-2 and Bax proteins were measured by western blot.

[5] = system: BALB/C mice; test: Death rate of mice after TP treatment; settings: TP 1 mg/kg iv, pretreatment with mdr1a-siRNA
Procedure: For TP plasma kinetic study and toxicological evaluation, mice were divided into four groups (n = 5 each) to collect blood and tissue samples: (1) normal + saline group; (2) 1.0 mg/kg TP + 15 nmol NC-siRNA group; (3) 1.0 mg/kg TP + 15 nmol mdr1a-siRNA group; (4) 1.0 mg/kg TP + 10 mg/kg tariquidar group. In order to avoid the complication caused by drug absorption or possible intestinal first-pass effect, TP and the inhibitor were intravenously administrated to mice. The siRNA group was intravenously injected with NC-siRNA or mdr1a-siRNA 2 days before TP dose. For TP + tariquidar group, the mice were received an intravenous tariquidar dose 20 min prior to the TP injection. Blood samples were collected at 2, 5, 10, 15, 30, 60 and 120 min after TP dosing. To assess the liver exposure of TP, liver tissue samples were collected from another set of mice at 5, 30, 60 and 120 min after dosing. Three TP groups were design for this experiment, including TP + NC-siRNA group, TP + mdr1a-siRNA group and TP + tariquidar group. The liver tissue samples were weighed and then homogenized in 10 volume (w:v) of ice-cold saline. The concentrations of TP in plasma and liver tissue were measured by a validated LC-MS/MS method. […]

[6] = C57, mouse, iv, 1 mg/kg, 15 nmol NC-siRNA iv 2 days before (control)
[7] = C57, mouse, iv, 1 mg/kg, 15 nmol mdr1a-siRNA iv 2 days before
[8] = C57, mouse, iv, 1 mg/kg, with tariquidar 10 mg/kg iv, 20 min before TP, tariquidar 10 mg/kg iv 20 min prior
[9] = 15 nmol NC-siRNA iv 2 days before (control)
[10] = 15 nmol mdr1a-siRNA iv 2 days before

Structure (SMILES): CC(C)[C@]12O[C@H]1[C@@H]1O[C@]13[C@]1(O[C@H]1C[C@H]1C4=C(CC[C@@]13C)C(=O)OC4)[C@@H]2O [TP, Triptolide]
- Serum ALT level, folds of the normal group [1]: 4.2 folds
- Serum AST level, folds of the normal group [1]: 5.4 folds
- Bcl-2/Bax ratio in liver [2]: significantly reduced
- MRT ([3]; C57, mouse, 15 nmol NC-siRNA iv 2 days before (control)): 20.4 ± 7.8 min
- AUC(0-t) [3, 6]: 104 ± 9.6 ng·h/mL
- Vd [3, 6]: 4.8 ± 1.1 L/kg
- half-life [3, 6]: 20.4 ± 8.4 min
- Cmax ([3]; C57, mouse, iv, 1 mg/kg, 15 nmol NC-siRNA iv 2 days before (control), read-out: Cmax): 413 ± 74 ng/mL
- AUC(0-t) [3, 7]: 154 ± 30.2 ng·h/mL
- Vd [3, 7]: 3.3 ± 0.7 L/kg
- half-life [3, 7]: 29.4 ± 13.8 min
- Cmax ([3]; C57, mouse, iv, 1 mg/kg, 15 nmol mdr1a-siRNA iv 2 days before, read-out: Cmax): 510 ± 94 ng/mL
- AUC(0-t) [3, 8]: 146 ± 24.6 ng·h/mL
- Vd [3, 8]: 3.9 ± 1.3 L/kg
- half-life [3, 8]: 29.4 ± 13.2 min
- Cmax ([3]; C57, mouse, iv, 1 mg/kg, with tariquidar 10 mg/kg iv, 20 min before TP, tariquidar 10 mg/kg iv 20 min prior, read-out: Cmax): 472 ± 66.5 ng/mL
- CL [3, 9]: 573.84 ± 61.452 L/h/kg
- Cmax [3, 9]: 413.1 ± 74.2 ng/mL
- CL [3, 10]: 345.32 ± 72.006 L/h/kg
- Cmax [3, 10]: 509.7 ± 94.1 ng/mL
- MRT ([3]; mouse, 15 nmol mdr1a-siRNA iv 2 days before): 30.6 ± 13.8 min
- MRT ([3]; mouse, with tariquidar 10 mg/kg iv, 20 min before TP, tariquidar 10 mg/kg iv 20 min prior): 30 ± 13.2 min
- Hepatic MDA level, fold increase ([4]; TP 1 mg/kg iv + mdr1a-siRNA): 1.6 fold
- Hepatic MDA level, fold increase ([4]; TP 1 mg/kg iv + tariquidar 10 mg/kg): 1.3 fold
- Hepatic SOD activity ([4]; all three TP groups, significant only with tariquidar or mdr1a-siRNA): reduction
- Death rate within 30 h of TP treatment [5]: about 60%
